Laboratory results: PubChem BioAssay AID1919008 (Molecular Pharmacology Branch, DTP, NCI, 2023)
Values joined by “and” are separate entries in the source; they are usually repeats but may differ in a detail not shown here. Identical values can stand only once.

System: DMS-114 complex spheroids with HUVEC/MSC, growth % test/control
Assay: Anticancer human tumor DMS-114 cell line growth inhibition [AhR];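 further: spheroids exposed to agents for 7 days before readout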;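 on viability, T/C: 100% = DMSO vehicle control wells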
Conditions: for viability, T/C: stronger effect = lower value
Text: Multicellular complex tumor spheroid response to aryl hydrocarbon receptor antagonists in combination with a variety of drugs and investigational agents in selected tumor cell lines
The current study was undertaken to assess response to aryl hydrocarbon receptor antagonists in combination with standard-of-care drugs and investigational agents in solid tumor complex spheroid models. Complex spheroids include a stromal component modeled by human endothelial cells (HUVEC) and fibroblasts modeled by human mesenchymal stem cells (MSCs). The concentration ranges selected for each drug and investigational agent were based upon clinically achievable concentrations if the clinical Cmax of the agent was known.
Compounds. The drugs and investigational agents: BAY 2416964 (NSC825713), GNF351 (NSC835774), CH-223191 (NSC835775), CPI-455 (NSC825282), aza-TdCyd (NSC777586), decitabine (NSC127716), belinostat (NSC758774), entinostat (NSC756642), pevonedistat (NSC761192), tazemetostat (NSC777109), talazoparib (NSC765396), olaparib (NSC753686), selinexor (NSC780203), nedisertib (M3814, NSC802822), bortezomib (NSC756655), venetoclax (NSC766270), doxorubicin (NSC123127), elimusertib (BAY189344, NSC800525), ceralasertib (AZD6738, NSC777638), TAK-243 (NSC785004), alisertib (NSC759677), etoposide (NSC141540), topotecan (NSC609699), eribulin (NSC707389), gemcitabine (NSC613327), carboplatin (NSC241240), cisplatin (NSC119875), and SN-38 (NSC673596) were obtained from the National Cancer Institute (NCI) Developmental Therapeutics Program Chemical Repository (32). The FDA-approved anticancer drug set is available from the Developmental Therapeutics Program at https://dtp.cancer.gov/organization/dscb/obtaining/available plates.htm. […] The stock solutions were prepared in dimethyl sulfoxide (DMSO, Sigma-Aldrich, St. Louis, MO, cat. D2650), except for the platinum compounds which were prepared in saline (Quality Biological, Gaithersburg, MD, cat. 114-055-101), at 800-fold the tested concentration and stored at -70 degrees C prior to their use. All drugs and investigational agents were tested over a range starting from a high concentration at or near the clinical Cmax and decreasing in half-log increments. If the clinical Cmax for an agent had not been determined, the highest concentration tested was 10 microM (Table 1).
Cell Culture. All cells were maintained in an incubator at 37 degrees C and 5% CO2 with 95% humidity. The PDC lines were cultured according to standard operating procedures established by the NCI PDMR (https://pdmr.cancer.gov). Briefly, all PDCs were thawed and cultured in Matrigel-coated flasks prepared with a working solution of 1X Ham's F-12 nutrient mix, without supplementation (Invitrogen, Waltham, MA, cat. 11765054), 100 U/mL penicillin-streptomycin (Invitrogen, cat. 15140122), and 2.5% Matrigel (Corning Inc., Corning, NY, cat. 354248) for the first three passages. All PDCs were cultured in complete DMEM/F-12 media containing advanced DMEM/F-12 (Invitrogen, cat. 12634028), 4.9% defined fetal bovine serum, heat inactivated (HyClone Laboratories Inc., Logan, UT, cat. SH30070.03HI), 389 ng/mL hydrocortisone (Sigma-Aldrich, cat. H4001), 9.7 ng/mL human EGF recombinant protein (Invitrogen, cat. PHG0313), 23.4 microg/mL adenine (Sigma-Aldrich, cat. A2786), 97.3 U/mL penicillin-streptomycin (Invitrogen, cat. 15140122), 1.9 mM L-glutamine (Invitrogen, cat. 25030081), and 9.7 microM Y-27632 dihydrochloride (Tocris Bioscience, Bristol, United Kingdom, cat. 1254). The PDCs were cultured in complete DMEM/F12 media without 10 microM Y-27632 dihydrochloride for at least two passages prior to the screen. The established cell lines NCI-H1341 and […] were cultured in DMEM/F-12, HEPES (Invitrogen, cat. 11330032), 5% defined fetal bovine serum (HyClone Laboratories Inc., cat. SH30070.03), ITS premix universal culture supplement [insulin (5 microg/mL), transferrin (5 microg/mL), and selenious acid (5 ng/mL)] […]

Structure (SMILES) | viability, T/C (compound 0.0316 µM) | viability, T/C (compound 0.1 µM) | viability, T/C (compound 0.316 µM) | viability, T/C (compound 1 µM) | viability, T/C (compound 3.16 µM) | viability, T/C (compound 10 µM) | IC50 (curve of compound) | also measured
COc1cccc2c1C(=O)c1c(O)c3c(c(O)c1C2=O)CC(O)(C(=O)CO)CC3OC1CC(N)C(O)C(C)O1 (stereo not given) | 23.9% and 68.6% and 44.3% | 18% and 54.1% and 32.1% | 4.97% and 18.6% and 9.53% | 0.27% and 1.97% and 1.19% | 0.18% and 0.45% and 0.38% | 0.28% and 0.73% and 0.56% | < 31.6 nM and 115 nM | 
Cc1ccccc1N=Nc1ccc(NC(=O)c2ccnn2C)c(C)c1 |  | 99.4% [middle of 20 runs] | 101% [middle of 20 runs] | 97.6% [middle of 20 runs] |  | 94% [middle of 20 runs] |  | IC50 (compound alone, run of 07/26/2022): > 10000 nM
Cn1ncnc1C1c2n[nH]c(=O)c3cc(F)cc(c23)NC1c1ccc(F)cc1 (stereo not given) | 93.1% and 107% and 99.9% | 76.3% and 101% and 86.2% |  |  |  |  | > 100 nM | viability, T/C (compound 0.000316 µM): 100% and 96.9% and 109%; viability, T/C (compound 0.001 µM): 98.4% and 102% and 98%; viability, T/C (compound 0.00316 µM): 95.9% and 96.9% and 99.1%; viability, T/C (compound 0.01 µM): 96% and 100% and 99.3%
NS(=O)(=O)OCC1CC(n2ccc3c(NC4CCc5ccccc54)ncnc32)CC1O (stereo not given) | 56% and 124% and 59.6% | 31.8% and 84.4% and 33.5% | 17.6% and 31.9% and 17.2% | 6.55% and 22.7% and 10.3% | 4.52% and 19.9% and 8.23% | 4.43% and 14.3% and 5.53% | 42.3 nM and 215 nM and 48 nM | 
Nc1ccccc1NC(=O)c1ccc(CNC(=O)OCc2cccnc2)cc1 | 89.7% and 96.8% and 108% | 85% and 94.1% and 92.8% | 68% and 90.9% and 67.3% | 37.8% and 74.1% and 40.4% | 15.6% and 44% and 22.9% | 8.33% and 24.4% and 14.5% | 627 nM and 2520 nM and 665 nM | 
Nc1ccn(C2OC(CO)C(O)C2(F)F)c(=O)n1 (stereo not given) | 9.8% and 13.2% and 25.1% | 8.85% and 12.6% and 26.8% | 9.58% and 12.2% and 25.9% | 10.4% and 11% and 25.1% | 9.16% and 11.7% and 24.5% | 9.05% and 10.8% and 25.4% | < 31.6 nM | 
Nc1ncn(C2CC(O)C(CO)O2)c(=O)n1 (stereo not given) | 105% and 108% and 88.3% | 83.8% and 112% and 109% | 66.8% and 110% and 78% | 53.1% and 110% and 66.1% |  |  | > 1000 nM | viability, T/C (compound 0.00316 µM): 91.9% and 109% and 106%; viability, T/C (compound 0.01 µM): 97.6% and 110% and 95%
Nc1ncn(C2CC(O)C(CO)S2)c(=O)n1 (stereo not given) |  |  |  |  |  |  | 222 nM and > 300 nM | viability, T/C (compound 0.000949 µM): 97.3% and 101% and 110%; viability, T/C (compound 0.003 µM): 108% and 102% and 116%; viability, T/C (compound 0.00949 µM): 112% and 104% and 102%; viability, T/C (compound 0.03 µM): 88.5% and 101% and 88.9%; viability, T/C (compound 0.0949 µM): 60.1% and 107% and 84.8%; viability, T/C (compound 0.3 µM): 46.1% and 86.9% and 52.9%
O=C(C=Cc1cccc(S(=O)(=O)Nc2ccccc2)c1)NO | 88.4% and 108% and 83% | 85.7% and 103% and 74.2% | 54.9% and 91% and 60% | 29.6% and 69.9% and 26.9% | 13.4% and 26.4% and 15.6% | 9.67% and 29.7% and 13.6% | 424 nM and 1730 nM and 436 nM | 
O=C(C=Cn1cnc(-c2cc(C(F)(F)F)cc(C(F)(F)F)c2)n1)NNc1cnccn1 |  |  |  |  |  |  | 189 nM and 901 nM and 221 nM | viability, T/C (compound 0.00949 µM): 106% and 109% and 113%; viability, T/C (compound 0.03 µM): 96.6% and 110% and 97.4%; viability, T/C (compound 0.0949 µM): 64.5% and 108% and 80.5%; viability, T/C (compound 0.3 µM): 40.7% and 87.3% and 37.6%; viability, T/C (compound 0.949 µM): 15% and 48.7% and 18.4%; viability, T/C (compound 3 µM): 5.6% and 17.9% and 7.48%
O=C(c1cc(Cc2n[nH]c(=O)c3ccccc23)ccc1F)N1CCN(C(=O)C2CC2)CC1 | 106% and 111% and 105% | 110% and 111% and 95.4% | 97.3% and 106% and 87.7% | 98% and 103% and 96.3% | 82.4% and 108% and 76.7% | 50.8% and 105% and 60.7% | > 10000 nM | 
